Values joined by “and” are separate entries in the source; they are usually repeats but may differ in a detail not shown here. Identical values can stand only once.
Test system: 991263-137-R1-J2-PDC complex spheroid viability
Experiment: Anticancer human tumor 991263-137-R1-J2-PDC patient-derived colon adenocarcinoma cell line growth inhibition [POLQ]
Settings: for viability, T/C: stronger effect = lower value; for IC50: curve of compound
Method: Multicellular complex tumor spheroid response to Polymerase (POL) inhibitors (novobiocin, ART-558, RP6685) in combination with a variety of drugs and investigational agents in selected tumor cell lines
The POL inhibitors (novobiocin, ART-558, and RP6685) were evaluated both individually and in combination with standard of care and investigational anticancer small molecules within a complex spheroid model of solid tumors. . Complex spheroids include a stromal component modeled by human endothelial cells (HUVEC) and fibroblasts modeled by human mesenchymal stem cells (MSCs). The concentration ranges selected for each drug and investigational agent were based upon clinically achievable concentrations if the clinical Cmax of the agent was known.
Compounds. The drugs and investigational agents: novobiocin (NSC847541), ART-558 (NSC835418), RP-6685 (NSC848927), peposertib (NSC802822), ceralasertib (NSC780249), elimusertib (NSC800525), camonsertib (NSC841442), AZD-1390 (NSC803789), olaparib (NSC753686), talazoparib (NSC767125), rucaparib (NSC756644), sotorasib (NSC818433), MRTX-1133 (NSC836407), SN-38 (NSC673596), topotecan (NSC609699), epotoside (NSC141540), doxorubicin (NSC123127), gemcitabine (NSC613327), 5-fluorouracil (NSC19893), paclitaxel (NSC125973), vemurafenib (NSC761431), MSA-2 (NSC828583), SN-011 (NSC837082), adavosertib (NSC754352), prexasertib (NSC758257), carboplatin (NSC241240) and oxaliplatin (NSC266046), were obtained from the National Cancer Institute (NCI) Developmental Therapeutics Program Chemical Repository (21). The FDA-approved anticancer drug set is available from the Developmental Therapeutics Program at https://dtp.cancer.gov/organization/dscb/obtaining/. […] The stock solutions were prepared in dimethyl sulfoxide (DMSO, Sigma-Aldrich, St. Louis, MO, cat. D2650), except for the platinum compounds which were prepared in saline (Quality Biological, Gaithersburg, MD, cat. 114-055-101), at 800-fold the tested concentration and stored at -70 degrees C prior to their use. All drugs and investigational agents were tested over a range starting from a high concentration at or near the clinical Cmax and decreasing in half-log increments. If the clinical Cmax for an agent had not been determined, the highest concentration tested was 10 microM, except for SN-38, which was tested at a high concentration of 1 microM.
Cell Culture. All cells were maintained in an incubator at 37 degrees C and 5% CO2 with 95% humidity. The PDC lines were cultured according to standard operating procedures established by the NCI PDMR (https://pdmr.cancer.gov). Table 3 of the manuscript, lists the cell lines along with the number of the three cell types plated to form the mct-spheroids and media for tumor cell growth. After thawing, all PDC lines, except 997537-175-T-J1-PDC and 415267-285-R-J2-PDC, were cultured in Matrigel-coated flasks prepared with a working solution of 1X Ham's F-12 nutrient mix, without supplementation (Thermo Fisher Scientific, cat. 11765054), 100 U/mL penicillin-streptomycin (Thermo Fisher Scientific, cat. 15140122), and 2.5% Matrigel (Corning Inc., Corning, NY, cat. 354248) for the first three passages. The two PDC lines 997537-175-T-J1-PDC and 415267-285-R-J2-PDC were cultured on uncoated flasks. The 857933-349-R-J2-PDC line was cultured in 6C/Colon 1B media containing advanced DMEM/F-12 (Thermo Fisher Scientific, cat. 12634028), 10 mM HEPES (Thermo Fisher Scientific, cat. 15630080), 1X GlutaMAX supplement (Thermo Fisher Scientific, cat. 35050061), 0.1 mg/mL primocin (InvivoGen, San Diego, CA, cat. ant-pm-2), 10% defined fetal bovine serum, heat inactivated (HyClone Laboratories Inc., Logan, UT, cat. SH30070.03HI), 50% L-WRN conditioned media (ATCC, cat. CRL-3276), 1.25 mM N-Acetyl-L-cysteine (Sigma-Aldrich, cat. A9165), 10 mM nicotinamide (Sigma-Aldrich, cat. N0636), 1X B-27 supplement (Thermo Fisher Scientific, cat. 17504044), 1X N-2 supplement (Thermo Fisher Scientific, cat. […]
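Note: spheroids exposed to compounds for 7 days before readout.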
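Throughout, for viability, T/C: 100% = DMSO vehicle control viability.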

SMILES | viability, T/C (compound 0.0316 µM) | viability, T/C (compound 0.1 µM) | viability, T/C (compound 0.316 µM) | viability, T/C (compound 1 µM) | viability, T/C (compound 3.16 µM) | viability, T/C (compound 10 µM) | IC50 | viability, T/C (compound 0.00316 µM) | viability, T/C (compound 0.01 µM) | viability, T/C (compound 0.00949 µM) | viability, T/C (compound 0.03 µM) | viability, T/C (compound 0.0949 µM) | viability, T/C (compound 0.3 µM) | viability, T/C (compound 0.949 µM) | viability, T/C (compound 3 µM) | viability, T/C (compound 0.000316 µM) | viability, T/C (compound 0.001 µM)
C#Cc1c(F)ccc2cc(O)cc(-c3ncc4c(N5CC6CCC(C5)N6)nc(OCC56CCCN5CC(F)C6)nc4c3F)c12 (stereo not given) | 111% and 87.6% and 112% | 107% and 91.8% and 88.9% | 104% (2×) and 103% | 108% and 105% and 109% | 96.9% and 116% (2×) | 104% and 99.7% and 82.3% | > 10000 nM |  |  |  |  |  |  |  |  |  | 
C=CC(=O)N1CCN(c2nc(=O)n(-c3c(C)ccnc3C(C)C)c3nc(-c4c(O)cccc4F)c(F)cc23)C(C)C1 (stereo not given) | 119% and 99.2% and 102% | 104% (2×) and 89.8% | 107% and 105% and 103% | 118% and 107% and 104% |  | 104% and 108% and 110% | > 10000 nM |  |  |  |  |  |  |  |  |  | 
C=CCn1c(=O)c2cnc(Nc3ccc(N4CCN(C)CC4)cc3)nc2n1-c1cccc(C(C)(C)O)n1 | 87% and 106% and 98.4% | 107% and 98.7% and 95.2% |  | 86.5% and 94.9% and 95% |  |  | > 1000 nM | 103% and 105% and 106% | 88.5% and 105% and 93.9% |  |  |  |  |  |  |  | 
CC(=O)O[C@H]1C(=O)[C@@]2(C)[C@H]([C@H](OC(=O)c3ccccc3)[C@]3(O)C[C@H](OC(=O)[C@H](O)[C@@H](NC(=O)c4ccccc4)c4ccccc4)C(C)=C1C3(C)C)[C@]1(OC(C)=O)CO[C@@H]1C[C@@H]2O |  |  |  |  |  |  | 1450 nM and 2480 nM and 1630 nM |  |  | 79.8% and 86.8% and 96.5% | 85.2% and 89.3% and 87.6% | 85.4% and 84% and 87.8% | 73.3% and 77.9% and 82.3% | 52.2% and 63.6% and 54.8% | 46.8% and 47.3% and 44.4% |  | 
CC(C)n1c(=O)n(C)c2cnc3cc(F)c(-c4ccc(OCCCN5CCCCC5)nc4)cc3c21 | 101% and 103% and 89.4% | 103% and 104% and 95.9% | 85.1% and 103% and 99.6% | 110% and 121% and 129% | 101% and 104% and 89.3% |  | > 10000 nM |  |  |  |  |  |  |  |  |  | 
CC1COCCN1c1cc(-c2ccnn2C)c2ccnc(-c3ccn[nH]3)c2n1 (stereo not given) | 112% and 99.9% and 100% | 86.5% and 89.2% and 93.4% | 81.6% and 77.2% and 83% | 52.1% and 41.8% and 54.8% | 35.4% and 24% and 43.9% | 28.9% and 25.4% and 31.9% | 1350 nM and 759 nM and 1690 nM |  |  |  |  |  |  |  |  |  | 
CC1COCCN1c1cc(C2(O)CC3CCC(C2)O3)c2cnn(-c3ccn[nH]3)c2n1 (stereo not given) | 103% and 87.7% and 99% | 95.7% and 94% and 86.5% | 88.2% and 74.1% and 73.4% | 56.8% and 58.5% and 54.9% | 36.5% and 33.8% and 36.9% | 30.4% and 26.9% and 29.3% | 1500 nM and 1410 nM and 1350 nM |  |  |  |  |  |  |  |  |  | 
CC1COCCN1c1cc(C2(S(C)(=N)=O)CC2)nc(-c2ccnc3[nH]ccc23)n1 (stereo not given) | 107% and 98.9% and 98.6% | 96.1% and 109% and 104% | 100% and 94.6% and 92.8% | 103% and 101% and 95.1% | 83% and 97.9% and 103% | 75.5% and 93.9% and 74.7% | > 10000 nM |  |  |  |  |  |  |  |  |  | 
CCCS(=O)(=O)Nc1ccc(F)c(C(=O)c2c[nH]c3ncc(-c4ccc(Cl)cc4)cc23)c1F | 110% and 93.5% and 111% | 99.2% and 90.3% and 101% | 108% and 94.4% and 86% |  | 114% and 104% and 107% | 97.2% and 94.1% and 109% | > 10000 nM |  |  |  |  |  |  |  |  |  | 
CC[C@@]1(O)C(=O)OCc2c1cc1n(c2=O)Cc2cc3c(CN(C)C)c(O)ccc3nc2-1 | 100% and 91.2% and 89.8% | 90.4% and 80.7% and 84.4% |  |  |  |  | > 100 nM | 110% (2×) and 111% | 105% and 101% and 91.5% |  |  |  |  |  |  | 111% and 94.9% and 103% | 101% and 96.9% and 107%
CCc1c2c(nc3ccc(O)cc13)-c1cc3c(c(=O)n1C2)COC(=O)[C@]3(O)CC | 63% and 64.4% and 51.9% | 49.8% and 45.2% and 54.4% | 37.3% and 37.2% and 36.9% | 25.2% and 26.9% and 20.9% |  |  | 99 nM and 83.3 nM and 93.9 nM | 88.8% and 83.4% and 108% | 80% and 74.9% and 74% |  |  |  |  |  |  |  | 
CCc1cc2c(N3CCc4c(cc(Cn5ccnc5)cc4-c4cn(C)nc4C(F)(F)F)C3=O)cc(C)nc2c(OC)n1 | 107% and 96% and 92.8% | 101% and 98.5% and 96.4% |  |  | 97.9% and 96.1% and 96.5% | 93.5% and 82.6% and 105% | > 10000 nM |  |  |  |  |  |  |  |  |  | 
CCc1cc2c(N3CCc4c(cc(Cn5ccnc5)cc4-c4cn(C)nc4C(F)(F)F)C3=O)ccnc2c(OC)n1 | 95% and 111% and 105% | 98.7% and 90.5% and 101% | 94.4% and 103% and 99.7% | 101% and 91.2% and 96.7% | 91.8% and 97.7% and 83.7% | 98.8% and 88.6% and 94.2% | > 10000 nM |  |  |  |  |  |  |  |  |  | 

From PubChem BioAssay AID1963828 (Molecular Pharmacology Branch, DTP, NCI, 2024)
